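Assay format: 96-well plates, 48-hour exposure. GI50 is the concentration that inhibits growth by half. TGI: total growth inhibition.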
Key:
Assay in all cases: NCI tumour cell line growth inhibition, 48 h
UACC-257 melanoma = test system: UACC-257 melanoma
OVCAR-8 ovarian = test system: OVCAR-8 ovarian
HOP-92 NSCLC = test system: HOP-92 NSCLC
SK-MEL-2 melanoma = test system: SK-MEL-2 melanoma
SNB-19 CNS = test system: SNB-19 CNS
CAKI-1 renal = test system: CAKI-1 renal
HCT-15 colon = test system: HCT-15 colon
SF-295 CNS = test system: SF-295 CNS
RXF 393 renal = test system: RXF 393 renal
SR leukemia = test system: SR leukemia
TK-10 renal = test system: TK-10 renal
HL-60(TB) leukemia = test system: HL-60(TB) leukemia
ACHN renal = test system: ACHN renal
MDA-MB-435 = test system: MDA-MB-435
NCI-H23 lung = test system: NCI-H23 lung
HT29 colon = test system: HT29 colon
LOX IMVI melanoma = test system: LOX IMVI melanoma
MCF7 breast = test system: MCF7 breast
SK-MEL-28 melanoma = test system: SK-MEL-28 melanoma
KM12 colon = test system: KM12 colon
SF-539 CNS = test system: SF-539 CNS
HCT-116 colon = test system: HCT-116 colon
IGROV1 ovarian = test system: IGROV1 ovarian
NCI-H522 lung = test system: NCI-H522 lung
RPMI-8226 leukemia = test system: RPMI-8226 leukemia
EKVX NSCLC = test system: EKVX NSCLC
NCI/ADR-RES ovarian = test system: NCI/ADR-RES ovarian
M14 melanoma = test system: M14 melanoma
786-0 renal = test system: 786-0 renal
SNB-75 CNS = test system: SNB-75 CNS
U251 CNS = test system: U251 CNS
OVCAR-3 ovarian = test system: OVCAR-3 ovarian
SK-MEL-5 melanoma = test system: SK-MEL-5 melanoma
OVCAR-4 ovarian = test system: OVCAR-4 ovarian
SK-OV-3 ovarian = test system: SK-OV-3 ovarian
COLO 205 colon = test system: COLO 205 colon
SW-620 colon = test system: SW-620 colon
NCI-H460 lung = test system: NCI-H460 lung
MOLT-4 leukemia = test system: MOLT-4 leukemia
SF-268 CNS = test system: SF-268 CNS
K-562 leukemia = test system: K-562 leukemia
NCI-H226 lung = test system: NCI-H226 lung
A549 NSCLC = test system: A549 NSCLC
T-47D breast = test system: T-47D breast
UO-31 renal = test system: UO-31 renal
OVCAR-5 ovarian = test system: OVCAR-5 ovarian
UACC-62 melanoma = test system: UACC-62 melanoma
BT-549 breast = test system: BT-549 breast
PC-3 prostate = test system: PC-3 prostate
HS 578T breast = test system: HS 578T breast
SN12C renal = test system: SN12C renal
DU-145 prostate = test system: DU-145 prostate
HOP-62 NSCLC = test system: HOP-62 NSCLC

## CCOC(=O)[C@H]1O[C@@H]1C(=O)N[C@@H](CC(C)C)C(=O)NCCc1ccc(O)cc1
UACC-257 melanoma
  GI50: > 100 µM
  TGI: > 100 µM
OVCAR-8 ovarian
  GI50: > 100 µM
  TGI: > 100 µM
HOP-92 NSCLC
  GI50: > 100 µM
  TGI: > 100 µM
SK-MEL-2 melanoma
  GI50: > 100 µM
  TGI: > 100 µM
SNB-19 CNS
  GI50: > 100 µM
  TGI: > 100 µM
CAKI-1 renal
  GI50: > 100 µM
  TGI: > 100 µM
HCT-15 colon
  GI50: > 100 µM
  TGI: > 100 µM
SF-295 CNS
  GI50: > 100 µM
  TGI: > 100 µM
RXF 393 renal
  GI50: > 100 µM
  TGI: > 100 µM
SR leukemia
  GI50: 41 µM
  TGI: > 100 µM
TK-10 renal
  GI50: > 100 µM
  TGI: > 100 µM
HL-60(TB) leukemia
  GI50: > 100 µM
  TGI: > 100 µM
ACHN renal
  GI50: > 100 µM
  TGI: > 100 µM
MDA-MB-435
  GI50: > 100 µM
  TGI: > 100 µM
NCI-H23 lung
  GI50: > 100 µM
  TGI: > 100 µM
HT29 colon
  GI50: > 100 µM
  TGI: > 100 µM
LOX IMVI melanoma
  GI50: > 100 µM
  TGI: > 100 µM
MCF7 breast
  GI50: > 100 µM
  TGI: > 100 µM
SK-MEL-28 melanoma
  GI50: > 100 µM
  TGI: > 100 µM
KM12 colon
  GI50: > 100 µM
  TGI: > 100 µM
SF-539 CNS
  GI50: > 100 µM
  TGI: > 100 µM
HCT-116 colon
  GI50: > 100 µM
  TGI: > 100 µM
IGROV1 ovarian
  GI50: > 100 µM
  TGI: > 100 µM
NCI-H522 lung
  GI50: > 100 µM
  TGI: > 100 µM
RPMI-8226 leukemia
  GI50: > 100 µM
  TGI: > 100 µM
EKVX NSCLC
  GI50: > 100 µM
  TGI: > 100 µM
NCI/ADR-RES ovarian
  GI50: > 100 µM
  TGI: > 100 µM
M14 melanoma
  GI50: > 100 µM
  TGI: > 100 µM
786-0 renal
  GI50: > 100 µM
  TGI: > 100 µM
SNB-75 CNS
  GI50: > 100 µM
  TGI: > 100 µM
U251 CNS
  GI50: > 100 µM
  TGI: > 100 µM
OVCAR-3 ovarian
  GI50: > 100 µM
  TGI: > 100 µM
SK-MEL-5 melanoma
  GI50: > 100 µM
  TGI: > 100 µM
OVCAR-4 ovarian
  GI50: > 100 µM
  TGI: > 100 µM
SK-OV-3 ovarian
  GI50: > 100 µM
  TGI: > 100 µM
COLO 205 colon
  GI50: > 100 µM
  TGI: > 100 µM
SW-620 colon
  GI50: > 100 µM
  TGI: > 100 µM
NCI-H460 lung
  GI50: > 100 µM
  TGI: > 100 µM
MOLT-4 leukemia
  GI50: > 100 µM
  TGI: > 100 µM
SF-268 CNS
  GI50: > 100 µM
  TGI: > 100 µM
K-562 leukemia
  GI50: 48.4 µM
  TGI: > 100 µM
NCI-H226 lung
  GI50: > 100 µM
  TGI: > 100 µM
A549 NSCLC
  GI50: > 100 µM
  TGI: > 100 µM
T-47D breast
  GI50: > 100 µM
  TGI: > 100 µM
UO-31 renal
  GI50: > 100 µM
  TGI: > 100 µM
OVCAR-5 ovarian
  GI50: > 100 µM
  TGI: > 100 µM
UACC-62 melanoma
  GI50: > 100 µM
  TGI: > 100 µM
BT-549 breast
  GI50: > 100 µM
  TGI: > 100 µM
PC-3 prostate
  GI50: > 100 µM
  TGI: > 100 µM
HS 578T breast
  GI50: > 100 µM
  TGI: > 100 µM
SN12C renal
  GI50: > 100 µM
  TGI: > 100 µM
DU-145 prostate
  GI50: > 100 µM
  TGI: > 100 µM
HOP-62 NSCLC
  GI50: > 100 µM
  TGI: > 100 µM

Reference: PubChem BioAssay (NCI)
